In patent publication US9789046B2, “Water-based resin nail polish” (LES FINS NETWORK TECHNOLOGY CO., LTD., priority 2015, dated 2017) one finds MIC50 data, which are given here for two compounds.

In brackets after ≈: the same amount, converted by molar mass.

Test in all cases: Antifungal activity experiment, 96-pore plate, MTT, OD 570 nm
Type in all cases: cell-based
What all share (conditions): MH medium, 37° C., 24 h, read-out: semi-inhibition rate MIC50

One experiment has as its system Trichophyton gypsum. How it is done:
(§1) Bacteria (Trichophyton rubrum, Trichophyton gypsum and flocculent trichomementagrophytes) are suspended in an MH culture medium, the dispersion concentration is about 10^5 cfu·mL−1, the bacterial solution is added onto 96-pore plate (100 μL of the bacterial solution is added into each pore), the culture medium is used as a blank control, DMSO is used for substituting a test material as a negative control, and itraconazole (Xian-Janssen Pharmaceutical Ltd.) is used as a positive control. […] The 96-pore plate is placed into an incubator at 37° C. to be cultured for 24 h, then 25 μL of the prepared solution containing 4 mg of PBS of MTT for each mL is added into each hole, and the solution is cultured for 4 h under a same condition, 100 μL of SDS lysis solution (including 95 mL of triple-distilled, 10 g of SDS, 5 mL of isopropyl alcohol and 0.1 mL of concentrated hydrochloric acid) is added into each pore and then is cultured for 12 h. An enzyme labeling instrument is used for determining an OD value at 570 nm, and a percent inhibition rate is calculated according to the formula equation: […]

The test system of the next experiment is Trichophyton rubrum. How it is done: as §1
The test system of experiment [1] is flocculent trichomementagrophytes. How it is done: as §1

Take `COc1ccc(-c2cc(=O)c3cc(O)c(OC)c4c3n2OC2OC(C)=C(O)C=C2C4)cc1` (stereo not drawn) [compound of formula I]: the values for the MIC50 (in the experiment on Trichophyton gypsum; with Trichophyton rubrum; in experiment [1]) were 0.6 µg/mL, 0.63 µg/mL and 0.82 µg/mL, respectively.
For `CCC(C)n1ncn(-c2ccc(N3CCN(c4ccc(OCC5COC(Cn6cncn6)(c6ccc(Cl)cc6Cl)O5)cc4)CC3)cc2)c1=O` (stereo not drawn) [itraconazole] the same measures were 0.7 µg/mL (≈ 0.992 µM), 0.63 µg/mL (≈ 0.893 µM) and 0.65 µg/mL (≈ 0.921 µM).
